Data taken from patent US20200353038A1, “PIF-TRANSFECTED CELLS AND METHODS OF USE” (BIOINCEPT, LLC, priority 2013, published 2020).

Legend:
HEK293 cells = assay: Transient transfection in HEK293 cells, toxicity; assay type: cell-based, human; conditions: intracellular expression, cultured for more than 72 hrs
PBMCs = tested on: PBMCs
From the text: Blood samples without identifiers were obtained from males and nonpregnant females after obtaining consent at MDSPS, WA. The studies were approved by the ethical committee at the institute. From the excess specimen, PBMCs were isolated using standard Ficoll Hypaque, a density gradient method. […] Samples were collected in duplicate at 24 and 48 hrs and used for global mRNA analysis.
After culture, PBMCs were collected and the chemically fragmented cRNA was then hybridized on Affymetrix HGU133 Plus 2.0 human chips in a GeneChip Hybridization Oven 640 (Affymetrix) and screened for 18,400 human genes and expressed-sequence tags, followed by fluorescence labeling with Fluidics Station 450 (Affymetrix) and optical scanning with an Affymetrix GeneChip Scanner 3000 (Codon Biosciences, LP, Houston, Tex.). P0.05 and >2-fold changes were considered as significant. Data is deposited at NCBI Geo (GSE18291).
For gene experiments, data was first analyzed using student's t-test, with p<0.05 results, followed by fold-change testing, with a cutoff 2-fold only reported.

IDE = molecular target: T1, IDE (Homo sapiens, UniProt P14735); assay: ProtoArray binding, IDE
T1 construct: purchased Invitrogen

Kv1.3b = assay: ProtoArray binding, Kv1.3b; parameters: species or system human
Cass4 = Cass4 (Homo sapiens, UniProt Q9NQ75); conditions: ProtoArray, minor binding target
Description: (§1) Unbound probe was washed off, and arrays were assessed by a fluorescence microarray scanner. […] As a negative control, an array was incubated with wash buffer while calmodulin kinase was used as a positive control detected by Alexa Fluor 647-conjugated anti-VS antibody.

Clorf87 = Clorf87 (Homo sapiens, UniProt Q8N0U7); conditions: ProtoArray, minor binding target
Description: as §1

DAPK3, (ZIPK) = DAPK3, (ZIPK) (Homo sapiens, UniProt O43293); conditions: ProtoArray, minor binding target
Description: as §1

ITK = ITK (Homo sapiens, UniProt Q08881); conditions: ProtoArray
Description: as §1

NEK11 = NEK11 (Homo sapiens, UniProt Q8NG66); conditions: ProtoArray, minor binding target
Description: as §1

[1] = molecular target: Platelet-Derived Growth Factor-β(PDGFP) (Homo sapiens, UniProt P01127); conditions: ProtoArray
Description: as §1

[2] = molecular target: Tissue-Specific Transplantation Antigen P35 (FX Enzyme) (Homo sapiens, UniProt Q13630); conditions: ProtoArray
Description: as §1

[3] = molecular target: outer dense fiber of the sperm tail-2 (ODF2L) (Homo sapiens, UniProt Q9ULJ1); conditions: ProtoArray, minor binding target
Description: as §1

female Swiss mice = conditions: Alzet pump subcutaneously, PIF 4.2 mg/ml (1 mg/kg/die), read days 14-16 pi
Description: 30 Swiss female mice and 30 Swiss male mice, 8-10 weeks old, were matched overnight for three consecutive days. The next morning, the presence of a vaginal plug was verified. 20 female Swiss mice positive for the vaginal plug were selected for the experiment.
Mice at days 1-3 post-insemination (pi) were anesthetized with ketamine and domitor 200 μl. […] The mice were located singularly in separated cages. […] At days 6-8 pi, the mice were treated with LPS […] or with PBS. At days 14-16 pi, the mice were euthanized and investigated for vital fetuses and for aborts. Mice with no vital fetuses nor signs of abortion were considered to carry 10 aborts for statistical purposes. The groups were compared with Fisher exact test, p<0.05 was considered significant (FIG. 22).

[4] = tested on: 9000 human protein targets; assay: Alexa-PIF interaction with ProtoArray Human Protein Microarrays v5.0; assay type: binding; conditions: PIF-Alexa 647 250 nM and 2.5 pM; protein not named
[5] = cell state not given, PIF 50 nM
[6] = following co-activation (anti-CD3/anti-CD28), PIF 50 nM
[7] = naive cells (by context), PIF 50 nM
[8] = naive cells, PIF 50 nM, up to 48 hrs

Chain of Kv1.3b (Q13303 40-367 limits assumed): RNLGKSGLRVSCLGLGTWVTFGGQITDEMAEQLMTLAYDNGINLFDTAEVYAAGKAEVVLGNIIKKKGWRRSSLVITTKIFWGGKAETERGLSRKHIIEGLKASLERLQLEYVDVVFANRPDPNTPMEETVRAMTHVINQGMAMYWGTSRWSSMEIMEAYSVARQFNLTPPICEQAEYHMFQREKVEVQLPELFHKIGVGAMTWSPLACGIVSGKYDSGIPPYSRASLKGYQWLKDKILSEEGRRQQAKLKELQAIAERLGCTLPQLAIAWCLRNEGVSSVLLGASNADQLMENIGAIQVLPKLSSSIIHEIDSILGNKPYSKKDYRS
Chain of ITK (Q08881 whole entry): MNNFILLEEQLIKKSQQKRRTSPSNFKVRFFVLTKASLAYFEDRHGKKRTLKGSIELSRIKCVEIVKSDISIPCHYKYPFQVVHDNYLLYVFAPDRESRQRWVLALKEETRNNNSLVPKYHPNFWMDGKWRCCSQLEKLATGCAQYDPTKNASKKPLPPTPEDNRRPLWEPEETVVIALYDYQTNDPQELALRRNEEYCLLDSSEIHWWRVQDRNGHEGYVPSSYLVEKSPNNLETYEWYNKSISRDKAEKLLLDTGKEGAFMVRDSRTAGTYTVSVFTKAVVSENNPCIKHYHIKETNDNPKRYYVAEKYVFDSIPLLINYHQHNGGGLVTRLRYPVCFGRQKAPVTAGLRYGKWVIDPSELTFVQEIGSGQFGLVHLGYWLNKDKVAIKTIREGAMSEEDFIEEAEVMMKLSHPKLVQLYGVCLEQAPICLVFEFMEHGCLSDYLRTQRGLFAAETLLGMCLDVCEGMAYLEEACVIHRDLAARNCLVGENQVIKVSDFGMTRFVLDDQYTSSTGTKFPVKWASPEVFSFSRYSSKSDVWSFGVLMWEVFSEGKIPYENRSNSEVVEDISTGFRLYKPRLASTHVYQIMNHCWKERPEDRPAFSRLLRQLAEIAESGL
Chain of outer dense fiber of the sperm tail-2 (ODF2L) (Q9ULJ1 whole entry): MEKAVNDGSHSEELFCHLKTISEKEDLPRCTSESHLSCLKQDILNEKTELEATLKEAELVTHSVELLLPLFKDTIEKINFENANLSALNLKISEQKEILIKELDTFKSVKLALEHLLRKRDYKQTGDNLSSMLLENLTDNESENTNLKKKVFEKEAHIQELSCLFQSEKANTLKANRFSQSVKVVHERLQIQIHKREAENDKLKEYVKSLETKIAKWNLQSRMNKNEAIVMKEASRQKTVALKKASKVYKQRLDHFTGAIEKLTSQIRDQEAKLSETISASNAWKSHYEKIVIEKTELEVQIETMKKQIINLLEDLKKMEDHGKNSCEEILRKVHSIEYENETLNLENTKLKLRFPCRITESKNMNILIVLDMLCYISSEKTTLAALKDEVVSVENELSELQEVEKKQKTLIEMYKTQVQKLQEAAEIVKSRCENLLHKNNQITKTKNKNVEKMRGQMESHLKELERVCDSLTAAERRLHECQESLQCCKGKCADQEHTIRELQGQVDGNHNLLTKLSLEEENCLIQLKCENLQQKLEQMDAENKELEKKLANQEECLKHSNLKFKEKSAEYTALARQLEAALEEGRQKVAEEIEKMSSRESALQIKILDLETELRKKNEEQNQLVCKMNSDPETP
Chain of DAPK3, (ZIPK) (O43293 whole entry): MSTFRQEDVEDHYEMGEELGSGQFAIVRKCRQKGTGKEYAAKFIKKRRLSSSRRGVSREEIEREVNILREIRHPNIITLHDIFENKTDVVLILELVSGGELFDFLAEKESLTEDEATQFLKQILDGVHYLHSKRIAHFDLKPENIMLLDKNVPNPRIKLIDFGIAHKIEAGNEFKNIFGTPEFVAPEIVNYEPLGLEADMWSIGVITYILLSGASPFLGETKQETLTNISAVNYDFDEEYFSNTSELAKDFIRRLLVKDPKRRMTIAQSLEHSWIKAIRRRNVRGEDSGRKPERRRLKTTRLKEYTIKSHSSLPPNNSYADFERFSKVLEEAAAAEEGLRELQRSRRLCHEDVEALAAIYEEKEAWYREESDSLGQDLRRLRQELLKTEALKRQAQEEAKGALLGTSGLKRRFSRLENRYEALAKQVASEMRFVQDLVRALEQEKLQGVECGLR
Chain of Platelet-Derived Growth Factor-β(PDGFP) (P01127 82-190): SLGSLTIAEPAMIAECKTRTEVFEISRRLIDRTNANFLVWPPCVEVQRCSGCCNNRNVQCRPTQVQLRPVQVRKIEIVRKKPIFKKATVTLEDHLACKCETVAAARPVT
Chain of Clorf87 (Q8N0U7 whole entry): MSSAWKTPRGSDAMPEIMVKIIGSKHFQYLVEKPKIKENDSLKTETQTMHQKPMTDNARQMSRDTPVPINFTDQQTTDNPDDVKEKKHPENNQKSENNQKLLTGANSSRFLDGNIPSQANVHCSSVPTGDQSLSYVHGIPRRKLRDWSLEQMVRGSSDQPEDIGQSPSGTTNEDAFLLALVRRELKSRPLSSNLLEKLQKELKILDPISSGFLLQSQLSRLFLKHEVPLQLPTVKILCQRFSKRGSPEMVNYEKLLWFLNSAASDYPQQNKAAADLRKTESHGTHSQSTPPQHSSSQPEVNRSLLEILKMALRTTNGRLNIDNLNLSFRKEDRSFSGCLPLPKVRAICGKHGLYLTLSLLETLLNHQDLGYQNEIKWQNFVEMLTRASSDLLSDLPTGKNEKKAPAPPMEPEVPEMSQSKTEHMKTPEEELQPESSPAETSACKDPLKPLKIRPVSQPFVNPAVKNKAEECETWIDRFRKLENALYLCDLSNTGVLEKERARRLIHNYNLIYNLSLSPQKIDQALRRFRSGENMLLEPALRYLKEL
Chain of Tissue-Specific Transplantation Antigen P35 (FX Enzyme) (Q13630 whole entry): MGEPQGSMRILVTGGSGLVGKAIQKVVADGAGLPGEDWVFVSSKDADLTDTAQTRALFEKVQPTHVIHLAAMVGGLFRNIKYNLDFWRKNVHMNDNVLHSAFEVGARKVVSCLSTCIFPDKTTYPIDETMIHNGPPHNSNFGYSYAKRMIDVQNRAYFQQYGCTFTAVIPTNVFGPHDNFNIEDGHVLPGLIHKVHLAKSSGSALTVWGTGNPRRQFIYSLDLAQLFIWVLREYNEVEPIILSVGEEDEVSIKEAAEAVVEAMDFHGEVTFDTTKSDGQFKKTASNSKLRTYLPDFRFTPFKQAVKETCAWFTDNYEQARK
Chain of NEK11 (Q8NG66 whole entry): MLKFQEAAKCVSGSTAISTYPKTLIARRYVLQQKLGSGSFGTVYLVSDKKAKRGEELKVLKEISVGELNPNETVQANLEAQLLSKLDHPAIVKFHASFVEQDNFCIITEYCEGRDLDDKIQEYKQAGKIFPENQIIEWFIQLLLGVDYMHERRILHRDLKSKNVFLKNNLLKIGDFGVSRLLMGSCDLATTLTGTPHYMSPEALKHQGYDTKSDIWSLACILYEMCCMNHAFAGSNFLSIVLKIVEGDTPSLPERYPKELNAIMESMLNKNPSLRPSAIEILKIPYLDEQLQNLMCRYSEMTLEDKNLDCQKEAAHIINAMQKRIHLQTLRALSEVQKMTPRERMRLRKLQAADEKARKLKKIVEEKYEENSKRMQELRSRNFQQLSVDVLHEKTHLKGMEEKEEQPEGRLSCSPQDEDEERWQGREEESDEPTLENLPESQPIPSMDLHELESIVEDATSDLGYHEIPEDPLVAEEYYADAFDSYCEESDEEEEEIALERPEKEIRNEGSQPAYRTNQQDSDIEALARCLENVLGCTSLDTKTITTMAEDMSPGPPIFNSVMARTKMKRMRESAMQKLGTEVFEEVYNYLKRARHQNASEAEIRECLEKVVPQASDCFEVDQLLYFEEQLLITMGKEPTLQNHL
Chain of Cass4 (Q9NQ75 whole entry): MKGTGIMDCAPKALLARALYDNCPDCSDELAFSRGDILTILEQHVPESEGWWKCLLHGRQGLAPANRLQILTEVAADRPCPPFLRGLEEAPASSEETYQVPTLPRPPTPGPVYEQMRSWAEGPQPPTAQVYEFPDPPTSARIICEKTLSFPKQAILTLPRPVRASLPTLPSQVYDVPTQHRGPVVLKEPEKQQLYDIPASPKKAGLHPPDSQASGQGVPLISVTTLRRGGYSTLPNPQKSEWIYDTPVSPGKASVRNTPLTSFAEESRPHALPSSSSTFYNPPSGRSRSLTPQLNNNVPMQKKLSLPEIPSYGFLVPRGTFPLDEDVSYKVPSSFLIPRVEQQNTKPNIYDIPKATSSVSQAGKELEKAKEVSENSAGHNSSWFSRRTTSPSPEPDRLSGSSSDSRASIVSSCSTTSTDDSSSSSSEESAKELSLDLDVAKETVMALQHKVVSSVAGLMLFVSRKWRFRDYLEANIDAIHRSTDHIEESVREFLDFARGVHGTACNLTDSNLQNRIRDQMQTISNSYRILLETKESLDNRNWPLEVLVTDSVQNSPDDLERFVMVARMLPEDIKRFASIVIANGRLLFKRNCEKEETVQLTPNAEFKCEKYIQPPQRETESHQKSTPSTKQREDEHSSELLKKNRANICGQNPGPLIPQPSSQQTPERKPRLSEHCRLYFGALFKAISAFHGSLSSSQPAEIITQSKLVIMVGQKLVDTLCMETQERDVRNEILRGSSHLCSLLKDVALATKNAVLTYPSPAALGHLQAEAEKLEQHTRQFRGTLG

DYKDDDDKGGGMVRIKPGSANKPSDDGGYPYDVPDYA (FLAG-(Gly)2-PIF-(Gly)2-HA) [FLAG-HA tagged PIF peptide]
toxicity or cell death of transfected cells (HEK293 cells): without signs of toxicity or cell death

MVRIKPGSANKPSDD [PIF]
IDE encoding gene expression (PBMCs; PBMCs exposed to PIF): not affected | Kv1.3b channel genes expression (PBMCs; PBMCs exposed to PIF): only minimally affected | six additional macropain genes family members, expression (FIG. 21) (PBMCs; PBMCs, PIF 50 nM): upregulated | ADAM 17 gene expression (PBMCs; activated cells (by context), PIF 50 nM): −2.2 fold | CDC42 gene expression (PBMCs; activated cells, PIF 50 nM): −2.2 fold | MCM2 gene expression (PBMCs; activated cells, PIF 50 nM): 2.8 fold | SPEC 1 gene expression (PBMCs; activated cells, PIF 50 nM): −2.2 fold | TSTA3 (FX) gene expression (PBMCs; activated cells, PIF 50 nM): 3.6 fold | cell division cycle 25A (CDC25A) gene expression (PBMCs; activated cells, PIF 50 nM): 6 fold | osteonectin gene expression (PBMCs; activated cells, PIF 50 nM): −2.2 fold | H2A O/L gene expression (decrease) (PBMCs; [5]): 2 fold | H2A gene expression (decrease) (PBMCs; [5]): 4.2 fold | H3F3A gene expression (PBMCs; [5]): −3 fold | ATP1B1 gene expression (PBMCs; following activation, PIF 50 nM): −2.4 fold | IGFBP6 gene expression (PBMCs; [6]): −2.4 fold | UDP-glucose dehydrogenase (UGDH) gene expression (PBMCs; [6]): −2 fold | insulin receptor (INSR) gene expression (PBMCs; [6]): −2.8 fold | macropain 26S subunit, non-ATPase, 10 (PSMD10) gene expression (PBMCs; [6]): 2.4 fold | SCN12 gene expression (PBMCs; [7]): 5.4 fold | SCNA1 (Na+ voltage-gated Al) gene expression (PBMCs; [7]): 7.8 fold | ITK expression, in words (PBMCs; naive cells as printed (last sentence of b342)): mildly decreased | ITK gene expression (PBMCs; naive cells, PIF 50 nM): 1.6 fold | K+ channel (KCNK4) gene expression (PBMCs; naive cells, PIF 50 nM): 2.8 fold | IGF-binding protein-3 (IGF219 BP3) gene expression (PBMCs; [8]): 4.6 fold | insulin-like growth factor-1 (IGF1) gene expression (PBMCs; [8]): 2.8 fold | binding to IDE, in words (IDE; ProtoArray): prime PIF peptide target | binding to Kv1.3b channels, in words (Kv1.3b; ProtoArray): targets | binding to Cass4, in words (Cass4): target | binding to Clorf87, in words (Clorf87): target | binding to DAPK3 (ZIPK), in words (DAPK3, (ZIPK)): targets | binding to ITK, in words (ITK): Targets | binding to NEK11, in words (NEK11): bind | binding to PDGFb, in words [1]: Targets | binding to FX enzyme, in words [2]: Targets | binding to ODF2L, in words [3]: observed | LPS-induced abortion (female Swiss mice; LPS 0.1 pg/gr days 6-8 pi): decreases | anesthesia-induced abortion (female Swiss mice; ketamine and domitor): prevents

PIF-Alexa 647: Alexafluor647 conjugate of synthetic PIF (MVRIKPGSANKPSDD)
Z-Score of one of the 11 interacting proteins [4]: greater than 3 | Z score (IDE; PIF-Alexa 647 250 nM and 2.5 pM): greater than 2 | Z score (Kv1.3b; Kv1.3b two variants, PIF-Alexa 647 250 nM and 2.5 pM): greater than 2
